Assays:
[1] = test system: JJN-3, L-363, LP-1, MOLP-8, RPMI-8226, OPM-2 and 5TGM1 cells; assay: Proliferation assays, all cancer cell lines tested; assay type: cell-based, human and mouse
Method: (§1) Proliferation assays were performed with human plasma cell leukemia (JJN-3, L-363), human multiple myeloma (LP-1, MOLP-8, RPMI-8226 and OPM-2) and mouse MM 5TGM1 cells. The corresponding in vivo effects were studied in a syngeneic 5TGM1 mouse MM model. Female C57BL/KaLwRij mice (6-9 weeks old, n=15/group) were inoculated with 5TGM1 cells via tail vein and 26 days later, radium-223 (300 kBq/kg, single iv injection) and/or bortezomib (1 mg/kg ip, twice a week) or vehicle control were administered. The development of the osteolytic lesions was detected by radiography. The hind limbs were used for histological analyses and total activity measurement performed by a gamma-counter. Osteoclast number at tumor-bone interface was measured using TRAP staining.

[2] = test system: syngeneic 5TGM1 mouse MM model; assay: Syngeneic 5TGM1 mouse MM model; assay type: in vivo; conditions: p<0.05 bortezomib; for osteolytic lesion area: radiography, radium-223 300 kBq/kg single iv and/or bortezomib 1 mg/kg ip twice a week, p=0.01 radium-223, p<0.001 combination
Method: as §1

[3] = test system: OPM-2 human multiple myeloma cells; assay: Proliferation assay, OPM-2; assay type: cell-based; conditions: OPM-2 cells
Method: as §1

[4] = test system: JJN-3 human plasma cell leukemia cells; assay: Proliferation assay, JJN-3; assay type: cell-based; conditions: JJN3 cells
Method: as §1

[5] = test system: MOLP-8 human multiple myeloma cells; assay: Proliferation assay, MOLP-8; assay type: cell-based; conditions: MOLP-8 cells
Method: as §1, with “staining. Bortezomib inhibited proliferation of all cancer cell lines tested at 25 nM (JJN3 and OPM-2 at 2.5 nM) and radium-223 at 800 Bq/ml (L-363 and MOLP-8 at 200 Bq/ml). […] In 5TGM1 MM model, both bortezomib and radium-223 decreased osteolytic lesion area as monotherapy (p<0.05 and p=0.01, respectively). […] All treatments were well tolerated.” for “staining.”

[6] = test system: patients with bone metastases; conditions: cited from earlier work
[7] = test system: patients with CRPC and bone metastases; conditions: cited from earlier work
[8] = test system: L-363 human plasma cell leukemia cells; assay: Proliferation assay, L-363; assay type: cell-based; conditions: L-363 cells
Method: as §1, with “staining. Bortezomib inhibited proliferation of all cancer cell lines tested at 25 nM (JJN3 and OPM-2 at 2.5 nM) and radium-223 at 800 Bq/ml (L-363 and MOLP-8 at 200 Bq/ml). […] In 5TGM1 MM model, both bortezomib and radium-223 decreased osteolytic lesion area as monotherapy (p<0.05 and p=0.01, respectively). […] All treatments were well tolerated.” for “staining.”

[9] = single dose 250 kBq per kg body weight; cited from earlier work
[10] = phase 2 studies, CRPC and bone metastases

| Compound | concentration at which proliferation was inhibited [1] [nM] | number of osteoclasts at tumor-bone interface ([2]; TRAP staining, p<0.01 combination) | osteolytic lesion area [2] | concentration at which proliferation was inhibited [3] [nM] | concentration at which proliferation was inhibited [4] [nM] | activity concentration at which proliferation was inhibited [5] [Bq/ml] | activity concentration at which proliferation was inhibited [1] [Bq/ml] | safety profile ([6]; phase 1 and 2 studies) | disease-related biomarkers (bone ALP, PSA) [6, 10] | pain [6, 10] | median survival longer than placebo ([7]; CRPC with bone metastases) [months] | median overall survival ([7]; Phase III clinical trials) | reduction in risk of death compared with placebo ([7]; overall survival, CRPC with bone metastases) [%] | time to first skeletal-related event ([7]; vs placebo) | activity concentration at which proliferation was inhibited [8] [Bq/ml] | cases of grade 3 neutropenia [9] | observed adverse reactions [9] |
| --- | --- | --- | --- | --- | --- | --- | --- | --- | --- | --- | --- | --- | --- | --- | --- | --- | --- |
| CC(C)C[C@H](NC(=O)[C@H](Cc1ccccc1)NC(=O)c1cnccn1)B(O)O [bortezomib] | 25 | decreased | decreased | 2.5 | 2.5 | – | – | – | – | – | – | – | – | – | – | – | – |
| [Cl][223Ra][Cl] [radium-223, radium-223 dichloride] | – | – | decreased | – | – | 200 | 800 | favorable safety profile with minimal myelotoxicity | improves | reduces pain | 2.8 | Significant increase | 30.5 | significantly prolonged | 200 | 1/5 | diarrhea and reversible myelosuppression |
